Assay results: PubChem BioAssay (NCI)
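In this assay, cells in 96-well plates receive the compound at five concentrations for 48 hours. Endpoints are linearly interpolated between the surrounding concentrations. GI50 marks 50% less growth. TGI denotes the concentration required for complete inhibition of growth.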

Key:
Assay in all cases: NCI tumour cell line growth inhibition, 48 h
786-0 renal = system: 786-0 renal
A498 renal = system: A498 renal
ACHN renal = system: ACHN renal
BT-549 breast = system: BT-549 breast
CAKI-1 renal = system: CAKI-1 renal
CCRF-CEM leukemia = system: CCRF-CEM leukemia
DU-145 prostate = system: DU-145 prostate
EKVX NSCLC = system: EKVX NSCLC
HCC-2998 colon = system: HCC-2998 colon
HCT-116 colon = system: HCT-116 colon
HCT-15 colon = system: HCT-15 colon
HL-60(TB) leukemia = system: HL-60(TB) leukemia
HOP-92 NSCLC = system: HOP-92 NSCLC
K-562 leukemia = system: K-562 leukemia
KM12 colon = system: KM12 colon
MCF7 breast = system: MCF7 breast
MDA-MB-231 breast = system: MDA-MB-231 breast
MDA-MB-435 = system: MDA-MB-435
NCI/ADR-RES ovarian = system: NCI/ADR-RES ovarian
OVCAR-4 ovarian = system: OVCAR-4 ovarian
OVCAR-5 ovarian = system: OVCAR-5 ovarian
PC-3 prostate = system: PC-3 prostate
RPMI-8226 leukemia = system: RPMI-8226 leukemia
RXF 393 renal = system: RXF 393 renal
SF-295 CNS = system: SF-295 CNS
SF-539 CNS = system: SF-539 CNS
SK-MEL-28 melanoma = system: SK-MEL-28 melanoma
SK-MEL-5 melanoma = system: SK-MEL-5 melanoma
SK-OV-3 ovarian = system: SK-OV-3 ovarian
SN12C renal = system: SN12C renal
SNB-19 CNS = system: SNB-19 CNS
SNB-75 CNS = system: SNB-75 CNS
TK-10 renal = system: TK-10 renal
UACC-257 melanoma = system: UACC-257 melanoma
UACC-62 melanoma = system: UACC-62 melanoma
UO-31 renal = system: UO-31 renal
A549 NSCLC = system: A549 NSCLC
COLO 205 colon = system: COLO 205 colon
HOP-62 NSCLC = system: HOP-62 NSCLC
HS 578T breast = system: HS 578T breast
HT29 colon = system: HT29 colon
IGROV1 ovarian = system: IGROV1 ovarian
M14 melanoma = system: M14 melanoma
MOLT-4 leukemia = system: MOLT-4 leukemia
NCI-H226 lung = system: NCI-H226 lung
NCI-H23 lung = system: NCI-H23 lung
NCI-H460 lung = system: NCI-H460 lung
NCI-H522 lung = system: NCI-H522 lung
OVCAR-8 ovarian = system: OVCAR-8 ovarian
SF-268 CNS = system: SF-268 CNS
SW-620 colon = system: SW-620 colon
T-47D breast = system: T-47D breast
U251 CNS = system: U251 CNS

COC[C@]12CCC(C)(C)C[C@H]1C1=CC[C@@H]3[C@@]4(C)CCCNC(C)(C)[C@@H]4CC[C@@]3(C)[C@]1(C)CC2
GI50 (786-0 renal): 1.61 µM | TGI (786-0 renal): 3.3 µM | GI50 (A498 renal): 1.71 µM | TGI (A498 renal): 3.23 µM | GI50 (ACHN renal): 1.73 µM | TGI (ACHN renal): 3.12 µM | GI50 (BT-549 breast): 1.68 µM | TGI (BT-549 breast): 3.11 µM | GI50 (CAKI-1 renal): 1.82 µM | TGI (CAKI-1 renal): 3.56 µM | GI50 (CCRF-CEM leukemia): 1.26 µM | TGI (CCRF-CEM leukemia): 3.19 µM | GI50 (DU-145 prostate): 1.81 µM | TGI (DU-145 prostate): 3.37 µM | GI50 (EKVX NSCLC): 1.64 µM | TGI (EKVX NSCLC): 3.12 µM | GI50 (HCC-2998 colon): 1.31 µM | TGI (HCC-2998 colon): 2.76 µM | GI50 (HCT-116 colon): 1.09 µM | TGI (HCT-116 colon): 2.48 µM | GI50 (HCT-15 colon): 1.41 µM | TGI (HCT-15 colon): 2.87 µM | GI50 (HL-60(TB) leukemia): 1.43 µM | TGI (HL-60(TB) leukemia): 3.87 µM | GI50 (HOP-92 NSCLC): 1.17 µM | TGI (HOP-92 NSCLC): 2.58 µM | GI50 (K-562 leukemia): 0.35 µM | TGI (K-562 leukemia): 4.65 µM | GI50 (KM12 colon): 1.79 µM | TGI (KM12 colon): 3.48 µM | GI50 (MCF7 breast): 1.25 µM | TGI (MCF7 breast): 2.82 µM | GI50 (MDA-MB-231 breast): 1.89 µM | TGI (MDA-MB-231 breast): 3.62 µM | GI50 (MDA-MB-435): 1.66 µM | TGI (MDA-MB-435): 3.13 µM | GI50 (NCI/ADR-RES ovarian): 1.73 µM | TGI (NCI/ADR-RES ovarian): 3.48 µM | GI50 (OVCAR-4 ovarian): 1.7 µM | TGI (OVCAR-4 ovarian): 3.34 µM | GI50 (OVCAR-5 ovarian): 1.67 µM | TGI (OVCAR-5 ovarian): 3.13 µM | GI50 (PC-3 prostate): 1.31 µM | TGI (PC-3 prostate): 2.64 µM | GI50 (RPMI-8226 leukemia): 1.31 µM | TGI (RPMI-8226 leukemia): 3.65 µM | GI50 (RXF 393 renal): 1.37 µM | TGI (RXF 393 renal): 2.88 µM | GI50 (SF-295 CNS): 1.73 µM | TGI (SF-295 CNS): 3.21 µM | GI50 (SF-539 CNS): 1.56 µM | TGI (SF-539 CNS): 3.05 µM | GI50 (SK-MEL-28 melanoma): 1.67 µM | TGI (SK-MEL-28 melanoma): 3.07 µM | GI50 (SK-MEL-5 melanoma): 1.58 µM | TGI (SK-MEL-5 melanoma): 3.05 µM | GI50 (SK-OV-3 ovarian): 1.8 µM | TGI (SK-OV-3 ovarian): 3.39 µM | GI50 (SN12C renal): 1.51 µM | TGI (SN12C renal): 3.07 µM | GI50 (SNB-19 CNS): 1.76 µM | TGI (SNB-19 CNS): 3.3 µM | GI50 (SNB-75 CNS): 1.53 µM | TGI (SNB-75 CNS): 3.41 µM | GI50 (TK-10 renal): 1.81 µM | TGI (TK-10 renal): 3.53 µM | GI50 (UACC-257 melanoma): 1.91 µM | TGI (UACC-257 melanoma): 3.82 µM | GI50 (UACC-62 melanoma): 1.62 µM | TGI (UACC-62 melanoma): 3.12 µM | GI50 (UO-31 renal): 1.41 µM | TGI (UO-31 renal): 2.79 µM

ClC(Cl)c1nc(-c2cccs2)n2nc(-c3ccccc3)cc2n1
GI50 (786-0 renal): 2.37 µM | TGI (786-0 renal): > 100 µM | GI50 (A498 renal): 1.25 µM | TGI (A498 renal): 2.53 µM | GI50 (A549 NSCLC): 0.68 µM | TGI (A549 NSCLC): 2.73 µM | GI50 (ACHN renal): 0.274 µM | TGI (ACHN renal): 1.05 µM | GI50 (BT-549 breast): 8.73 µM | TGI (BT-549 breast): > 100 µM | GI50 (CAKI-1 renal): 1.13 µM | TGI (CAKI-1 renal): 4.01 µM | GI50 (CCRF-CEM leukemia): 5.92 µM | TGI (CCRF-CEM leukemia): > 100 µM | GI50 (COLO 205 colon): 0.476 µM | TGI (COLO 205 colon): 2.07 µM | GI50 (DU-145 prostate): 0.293 µM | TGI (DU-145 prostate): 0.77 µM | GI50 (HCC-2998 colon): 0.464 µM | TGI (HCC-2998 colon): 1.74 µM | GI50 (HCT-116 colon): 1.3 µM | TGI (HCT-116 colon): 6.87 µM | GI50 (HCT-15 colon): 1.06 µM | TGI (HCT-15 colon): 3.63 µM | GI50 (HL-60(TB) leukemia): 0.267 µM | TGI (HL-60(TB) leukemia): 1.31 µM | GI50 (HOP-62 NSCLC): 0.419 µM | TGI (HOP-62 NSCLC): 2.99 µM | GI50 (HOP-92 NSCLC): 0.444 µM | TGI (HOP-92 NSCLC): 2.48 µM | GI50 (HS 578T breast): 1.6 µM | TGI (HS 578T breast): 4.71 µM | GI50 (HT29 colon): 0.355 µM | TGI (HT29 colon): 1.75 µM | GI50 (IGROV1 ovarian): 2.65 µM | TGI (IGROV1 ovarian): > 100 µM | GI50 (K-562 leukemia): 2.13 µM | TGI (K-562 leukemia): > 100 µM | GI50 (KM12 colon): 2.48 µM | TGI (KM12 colon): 8.34 µM | GI50 (M14 melanoma): 4.35 µM | TGI (M14 melanoma): > 100 µM | GI50 (MCF7 breast): 0.425 µM | TGI (MCF7 breast): 3.53 µM | GI50 (MDA-MB-231 breast): 0.5 µM | TGI (MDA-MB-231 breast): 2.75 µM | GI50 (MDA-MB-435): 1.47 µM | TGI (MDA-MB-435): 2.99 µM | GI50 (MOLT-4 leukemia): 2.82 µM | TGI (MOLT-4 leukemia): > 100 µM | GI50 (NCI-H226 lung): > 100 µM | TGI (NCI-H226 lung): > 100 µM | GI50 (NCI-H23 lung): 1.47 µM | TGI (NCI-H23 lung): 4.44 µM | GI50 (NCI-H460 lung): 0.299 µM | TGI (NCI-H460 lung): 0.974 µM | GI50 (NCI-H522 lung): > 100 µM | TGI (NCI-H522 lung): > 100 µM | GI50 (NCI/ADR-RES ovarian): 0.912 µM | TGI (NCI/ADR-RES ovarian): 4.09 µM | GI50 (OVCAR-4 ovarian): 2.02 µM | TGI (OVCAR-4 ovarian): 5.06 µM | GI50 (OVCAR-5 ovarian): 1.74 µM | TGI (OVCAR-5 ovarian): 5.12 µM | GI50 (OVCAR-8 ovarian): 1.15 µM | TGI (OVCAR-8 ovarian): > 100 µM | GI50 (PC-3 prostate): 1.18 µM | TGI (PC-3 prostate): 3.75 µM | GI50 (RPMI-8226 leukemia): 0.472 µM | TGI (RPMI-8226 leukemia): 2.56 µM | GI50 (RXF 393 renal): 0.477 µM | TGI (RXF 393 renal): 1.69 µM | GI50 (SF-268 CNS): 1.6 µM | TGI (SF-268 CNS): 5.18 µM | GI50 (SF-295 CNS): 0.801 µM | TGI (SF-295 CNS): 3.39 µM | GI50 (SF-539 CNS): 1.1 µM | TGI (SF-539 CNS): 2.94 µM | GI50 (SK-MEL-28 melanoma): 1.69 µM | TGI (SK-MEL-28 melanoma): 3.22 µM | GI50 (SK-MEL-5 melanoma): > 100 µM | TGI (SK-MEL-5 melanoma): > 100 µM | GI50 (SK-OV-3 ovarian): 1.89 µM | TGI (SK-OV-3 ovarian): 6.66 µM | GI50 (SN12C renal): > 100 µM | TGI (SN12C renal): > 100 µM | GI50 (SNB-19 CNS): 0.635 µM | TGI (SNB-19 CNS): 3.71 µM | GI50 (SW-620 colon): 0.681 µM | TGI (SW-620 colon): 3.49 µM | GI50 (T-47D breast): 1.51 µM | TGI (T-47D breast): 5.72 µM | GI50 (TK-10 renal): 3.23 µM | TGI (TK-10 renal): 6.25 µM | GI50 (U251 CNS): 0.326 µM | TGI (U251 CNS): 1.82 µM | GI50 (UACC-257 melanoma): 2.4 µM | TGI (UACC-257 melanoma): 5.68 µM | GI50 (UO-31 renal): 1.19 µM | TGI (UO-31 renal): 4.52 µM
